# Laboratory results: patent US20110190280A1, “Thiazole And Oxazole Kinase Inhibitors” (priority 2007, published 2011)
# Counter-ions that a name gives are not always drawn.
# Experiments:
# A375P tumor cells = test: Cell growth inhibition assay (CellTiter-Glo), A375P; settings: Homo sapiens, 72 h, read-out: Activity in A375P Tumor Cells;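 also: total ATP luminescence used as proxy for cell number, serial threefold compound dilutions at 0.2% DMSO, growth inhibition expressed versus DMSO vehicle-treated wells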
# B-Raf = B-Raf (Homo sapiens, UniProt P15056); test: B-Raf Accelerated MEK ATPase assay (BRAMA); assay type: biochemical; settings: BRAMA enzyme assay; class by pIC50; read-out: B-Raf Activity
# Chain of B-Raf (P15056 whole entry): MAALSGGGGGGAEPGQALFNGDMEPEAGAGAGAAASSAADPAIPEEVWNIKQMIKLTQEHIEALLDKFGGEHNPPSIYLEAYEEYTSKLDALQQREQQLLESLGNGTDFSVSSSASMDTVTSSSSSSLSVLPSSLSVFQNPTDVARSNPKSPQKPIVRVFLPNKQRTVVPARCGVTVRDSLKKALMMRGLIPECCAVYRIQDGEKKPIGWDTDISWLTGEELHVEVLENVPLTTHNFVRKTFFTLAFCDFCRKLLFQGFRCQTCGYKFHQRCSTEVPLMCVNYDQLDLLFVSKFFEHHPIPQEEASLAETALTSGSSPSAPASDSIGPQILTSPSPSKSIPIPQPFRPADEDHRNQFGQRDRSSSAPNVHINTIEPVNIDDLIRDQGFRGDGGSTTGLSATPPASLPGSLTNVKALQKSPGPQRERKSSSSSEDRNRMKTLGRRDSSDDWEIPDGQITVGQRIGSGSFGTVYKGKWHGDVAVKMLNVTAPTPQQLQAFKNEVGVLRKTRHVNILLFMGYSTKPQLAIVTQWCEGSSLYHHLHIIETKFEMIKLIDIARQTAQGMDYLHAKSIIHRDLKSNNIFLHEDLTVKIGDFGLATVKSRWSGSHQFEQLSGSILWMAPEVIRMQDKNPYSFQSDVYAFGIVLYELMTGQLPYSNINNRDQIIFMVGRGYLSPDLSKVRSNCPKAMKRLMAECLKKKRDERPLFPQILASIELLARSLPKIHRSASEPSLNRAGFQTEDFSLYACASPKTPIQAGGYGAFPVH
# Protocol: Compounds of the present invention were tested for B-Raf […] inhibitory activity in a B-Raf Accelerated MEK ATPase assay (BRAMA). The BRAMA assay is a high sensitivity assay which measures an intrinsic MEK-mediated ATP hydrolysis uncoupled from downstream ERK phosphorylation by coupling the formation of ADP to NADH oxidation through the enzymes pyruvate kinase and lactate dehydrogenase. When ADP production is initiated by addition of catalytic amounts of an activated RAF enzyme and non-phosphorylated MEK, one observes robust ADP production concomitant with RAF-mediated phosphorylation of MEK. Specific details of the assay are disclosed in: C. Rominger, M. Schaber, E. May. Assay for B-Raf Activity Based on Intrinsic MEK ATPase Activity.
# SK-MEL-3 tumor cells = test: Cell growth inhibition assay (CellTiter-Glo), SK-MEL-3; settings: Homo sapiens, SK-MEL3, 72 h, read-out: Activity in SK-MEL-3 Tumor Cells;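 also: human melanoma cells grown with compound for 3 days in 0.2% DMSO, total ATP read by luminescence as proxy for cell number, growth inhibition versus DMSO-treated wells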
# Protocol: (§1) Cell Growth Inhibition Assays Human colon tumor cells (Colo205) were cultured in RPMI (Mediatech 50-020-PB) containing 10% FBS and 1% penicillin-streptomycin. […] Human melanoma cancer cells (A375-F11S) were cultured in RPMI (Mediatech 50-020-PB) containing 10% FBS, 1% sodium pyruvate, and 1% penicillin-streptomycin. Human colon cancer cells (HT-29) were cultured in high glucose DMEM (Mediatech 50-013-PB) containing 10% FBS and 1% penicillin-streptomycin. Human melanoma cancer cells (SK-MEL-3) were cultured in McCoy's 5A (50-025-PB) containing 15% FBS, and 1% penicillin-streptomycin. All cell lines were maintained at 37° C. in a humidified 5% CO2, 95% air incubator.
# (§2) The next day, compounds were diluted as follows: For 96-well assays, 13.5 μl of compound in DMSO were diluted using nine (9) serial 1:3 dilutions of 4.5 μl in 9 μl of DMSO. Medium (270 μl/well of RPMI with 10% FBS and 1% penicillin-streptomycin) was added to the plates. Aliquots (7 μl) were added to cells in the final assay giving a final DMSO concentration of 0.2%. For 384-well assays, 15 μl of compound in DMSO were diluted using nine (9) serial 1:3 dilutions of 5 μl in 10 μl of DMSO, followed by a further dilution of 5 μl of compound with 95 μl of medium, of which 2 μl are added to cells in the final assay giving a final DMSO concentration of 0.2%. Cells were incubated at 37° C., 5% CO2 for 3 days.
# (§3) Total ATP was measured (as a surrogate estimate of cell number) using CellTiter-Glo® (Promega G7571) reagent. Briefly, plates were removed from the incubator and allowed to equilibrate to room temperature for 30 minutes. CellTiter-Glo® (25 μl or 55 μl for 384-well or 96-well assays, respectively) reagent was added to each well and plates were shaken on an orbital plate shaker for 2 minutes. Plates were incubated without shaking for a further 30 minutes and read on an LJL Analyst GT reader in luminometer mode with an integration time of 0.5 seconds per well. Percent inhibition of cell growth was calculated relative to DMSO vehicle-treated control wells.
# HT-29 tumor cells = test: Cell growth inhibition assay (CellTiter-Glo), HT-29; settings: Homo sapiens, HT-29, 72 h, read-out: Activity in HT-29 Tumor Cells;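 also: ATP content read by luminescence as proxy for cell number, growth inhibition versus DMSO vehicle wells, 0.2% DMSO final, nine serial threefold compound dilutions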
# Protocol: as §1, §2, §3
# SK-MEL-28 tumor cells = test: Cell growth inhibition assay (CellTiter-Glo), SK-MEL-28; settings: Homo sapiens, SK-MEL-28, 72 h, read-out: Activity in SK-MEL-28 Tumor Cells;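 also: luminescent total ATP as a proxy for cell number, threefold serial dilutions at 0.2% DMSO, percent growth inhibition versus DMSO vehicle control wells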
# Colo205 tumor cells = test: Cell growth inhibition assay (CellTiter-Glo), Colo205; settings: Homo sapiens, COLO 205, 72 h, read-out: Activity in Colo205 Tumor Cells;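 also: growth measured via total ATP luminescence (CellTiter-Glo) as a proxy for cell number, inhibition expressed against DMSO-treated control wells, 3-day exposure at 0.2% final DMSO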
# Protocol: as §1, §2, §3
structure (smiles),measurement,setting,value
"CCNc1nc(-c2cccc(N(C)C)c2)c(-c2ccnc(Nc3ccc(OCCN4CCCC4)c(Cl)c3)n2)s1 [Example 45, N-(3-Chloro-4-{[2-(1-pyrrolidinyl)ethyl]oxy}phenyl)-4-[4-[3-(dimethylamino)phenyl]-2-(ethylamino)-1,3-thiazol-5-yl]-2-pyrimidinamine]",IC50,A375P tumor cells,0.5 to 5 µM
same,IC50,B-Raf,< 0.1 µM
same,IC50,SK-MEL-3 tumor cells,0.5 to 5 µM
same,IC50,HT-29 tumor cells,< 0.5 µM
same,IC50,SK-MEL-28 tumor cells,0.5 to 5 µM
same,IC50,Colo205 tumor cells,0.5 to 5 µM
CCNc1nc(-c2cc(C)cc(OC)c2)c(-c2ccnc(Nc3ccc(OC4CCN(CCS(C)(=O)=O)CC4)c(C)c3)n2)o1 [Example 125],IC50,A375P tumor cells,0.5 to 5 µM
same,IC50,B-Raf,< 0.1 µM
same,IC50,SK-MEL-3 tumor cells,0.5 to 5 µM
same,IC50,HT-29 tumor cells,0.5 to 5 µM
same,IC50,SK-MEL-28 tumor cells,0.5 to 5 µM
same,IC50,Colo205 tumor cells,0.5 to 5 µM
COc1cc(C)cc(-c2nc(C(C)C)oc2-c2ccnc(Nc3ccc(N4CCN(C(C)=O)CC4)nc3)n2)c1 [Example 98],IC50,A375P tumor cells,0.5 to 5 µM
same,IC50,B-Raf,< 0.1 µM
same,IC50,SK-MEL-3 tumor cells,< 0.5 µM
same,IC50,HT-29 tumor cells,0.5 to 5 µM
same,IC50,SK-MEL-28 tumor cells,0.5 to 5 µM
same,IC50,Colo205 tumor cells,< 0.5 µM
"CCNc1nc(-c2cc(C)cc(OC)c2)c(-c2ccnc(Nc3ccc(N4CCN(C)CC4)c(OC)c3)n2)s1 [Example 33, 4-{2-(Ethylamino)-4-[3-methyl-5-(methyloxy)phenyl]-1,3-thiazol-5-yl}-N-[3-(methyloxy)-4-(4-methyl-1-piperazinyl)phenyl]-2-pyrimidinamine]",IC50,A375P tumor cells,< 0.5 µM
same,IC50,B-Raf,< 0.1 µM
same,IC50,SK-MEL-3 tumor cells,< 0.5 µM
same,IC50,HT-29 tumor cells,< 0.5 µM
same,IC50,SK-MEL-28 tumor cells,< 0.5 µM
same,IC50,Colo205 tumor cells,< 0.5 µM
CCNc1nc(-c2cc(OC)cc(OC)c2)c(-c2ccnc(Nc3ccc(OC4CCN(CCS(C)(=O)=O)CC4)c(OC)c3)n2)o1 [Example 95],IC50,A375P tumor cells,0.5 to 5 µM
same,IC50,B-Raf,< 0.1 µM
same,IC50,SK-MEL-3 tumor cells,0.5 to 5 µM
same,IC50,HT-29 tumor cells,0.5 to 5 µM
same,IC50,SK-MEL-28 tumor cells,0.5 to 5 µM
same,IC50,Colo205 tumor cells,0.5 to 5 µM
CCNc1nc(-c2cc(OC)cc(OC)c2)c(-c2ccnc(Nc3cc(F)c(OC4CCN(CCS(C)(=O)=O)CC4)c(F)c3)n2)o1 [Example 90],IC50,A375P tumor cells,0.5 to 5 µM
same,IC50,B-Raf,< 0.1 µM
same,IC50,SK-MEL-3 tumor cells,< 0.5 µM
same,IC50,HT-29 tumor cells,< 0.5 µM
same,IC50,SK-MEL-28 tumor cells,< 0.5 µM
same,IC50,Colo205 tumor cells,< 0.5 µM
"CCNc1nc(-c2cc(OC)cc(OC)c2)c(-c2ccnc(Nc3ccc(N4CCN(CC)CC4)cc3)n2)s1 [Example 5, 4-[4-[3,5-Bis(methyloxy)phenyl]-2-(ethylamino)-1,3-thiazol-5-yl]-N-[4-(4-ethyl-1-piperazinyl)phenyl]-2-pyrimidinamine trifluoroacetate]",IC50,A375P tumor cells,0.5 to 5 µM
same,IC50,B-Raf,< 0.1 µM
same,IC50,SK-MEL-3 tumor cells,< 0.5 µM
same,IC50,HT-29 tumor cells,< 0.5 µM
same,IC50,SK-MEL-28 tumor cells,0.5 to 5 µM
same,IC50,Colo205 tumor cells,0.5 to 5 µM
CCNc1nc(-c2cc(OC)cc(OC)c2)c(-c2ccnc(Nc3ccc(OCCN(C)C)c(C)c3)n2)s1 [Example 106],IC50,A375P tumor cells,< 0.5 µM
same,IC50,B-Raf,< 0.1 µM
same,IC50,SK-MEL-3 tumor cells,< 0.5 µM
same,IC50,HT-29 tumor cells,< 0.5 µM
same,IC50,SK-MEL-28 tumor cells,0.5 to 5 µM
same,IC50,Colo205 tumor cells,< 0.5 µM
"COc1cc(OC)cc(-c2nc(NC3CC3)sc2-c2ccnc(Nc3ccc(O[C@@H]4CCN(CCF)C4)nc3)n2)c1 [Example 19, 4-[4-[3,5-Bis(methyloxy)phenyl]-2-(cyclopropylamino)-1,3-thiazol-5-yl]-N-(6-{[(3R)-1-(2-fluoroethyl)-3-pyrrolidinyl]oxy}-3-pyridinyl)-2-pyrimidinamine]",IC50,A375P tumor cells,< 0.5 µM
same,IC50,B-Raf,< 0.1 µM
same,IC50,SK-MEL-3 tumor cells,< 0.5 µM
same,IC50,HT-29 tumor cells,< 0.5 µM
same,IC50,SK-MEL-28 tumor cells,< 0.5 µM
same,IC50,Colo205 tumor cells,< 0.5 µM
CCNc1nc(-c2cc(OC)cc(OC)c2)c(-c2ccnc(Nc3cc(F)c(N4CCN(CCF)CC4)c(F)c3)n2)o1 [Example 94],IC50,A375P tumor cells,0.5 to 5 µM
same,IC50,B-Raf,< 0.1 µM
same,IC50,SK-MEL-3 tumor cells,< 0.5 µM
same,IC50,HT-29 tumor cells,< 0.5 µM
same,IC50,SK-MEL-28 tumor cells,0.5 to 5 µM
same,IC50,Colo205 tumor cells,< 0.5 µM
CCNc1nc(-c2cc(C)cc(OC)c2)c(-c2ccnc(Nc3ccc(N4CCN(CCS(C)(=O)=O)CC4)c(F)c3)n2)o1 [Example 127],IC50,A375P tumor cells,0.5 to 5 µM
same,IC50,B-Raf,< 0.1 µM
same,IC50,SK-MEL-3 tumor cells,< 0.5 µM
same,IC50,HT-29 tumor cells,< 0.5 µM
same,IC50,SK-MEL-28 tumor cells,< 0.5 µM
same,IC50,Colo205 tumor cells,< 0.5 µM
"CCNc1nc(-c2cc(OC)cc(OC)c2)c(-c2ccnc(Nc3ccc(OC4CCN(C(C)=O)CC4)c(F)c3)n2)s1 [Example 12, N-{4-[(1-Acetyl-4-piperidinyl)oxy]-3-fluorophenyl}-4-[4-[3,5-bis(methyloxy)phenyl]-2-(ethylamino)-1,3-thiazol-5-yl]-2-pyrimidinamine]",IC50,A375P tumor cells,< 0.5 µM
same,IC50,B-Raf,< 0.1 µM
same,IC50,SK-MEL-3 tumor cells,< 0.5 µM
same,IC50,HT-29 tumor cells,< 0.5 µM
same,IC50,SK-MEL-28 tumor cells,0.5 to 5 µM
same,IC50,Colo205 tumor cells,< 0.5 µM
CCNc1nc(-c2cc(OC)cc(OC)c2)c(-c2ccnc(Nc3ccc(OC4CCN(CCS(C)(=O)=O)CC4)c(Cl)c3)n2)o1 [Example 92],IC50,A375P tumor cells,0.5 to 5 µM
same,IC50,B-Raf,< 0.1 µM
same,IC50,SK-MEL-3 tumor cells,0.5 to 5 µM
same,IC50,HT-29 tumor cells,0.5 to 5 µM
same,IC50,SK-MEL-28 tumor cells,0.5 to 5 µM
same,IC50,Colo205 tumor cells,0.5 to 5 µM
"CCc1nc(-c2cc(CO)cc(OC)c2)c(-c2ccnc(Nc3ccc(N4CCN(C(C)=O)CC4)nc3)n2)s1 [Example 65, [3-[5-(2-{[6-(4-Acetyl-1-piperazinyl)-3-pyridinyl]amino}-4-pyrimidinyl)-2-ethyl-1,3-thiazol-4-yl]-5-(methyloxy)phenyl]methanol]",IC50,A375P tumor cells,0.5 to 5 µM
same,IC50,B-Raf,< 0.1 µM
same,IC50,SK-MEL-3 tumor cells,0.5 to 5 µM
same,IC50,HT-29 tumor cells,0.5 to 5 µM
same,IC50,SK-MEL-28 tumor cells,0.5 to 5 µM
same,IC50,Colo205 tumor cells,0.5 to 5 µM
"CCNc1nc(-c2cc(C)cc(OC)c2)c(-c2ccnc(Nc3ccc4c(c3)CS(=O)(=O)C4)n2)s1 [Example 14, N-(2,2-Dioxido-1,3-dihydro-2-benzothien-5-yl)-4-{2-(ethylamino)-4-[3-methyl-5-(methyloxy)phenyl]-1,3-thiazol-5-yl}-2-pyrimidinamine]",IC50,A375P tumor cells,< 0.5 µM
same,IC50,B-Raf,< 0.1 µM
same,IC50,SK-MEL-3 tumor cells,< 0.5 µM
same,IC50,HT-29 tumor cells,< 0.5 µM
same,IC50,SK-MEL-28 tumor cells,0.5 to 5 µM
same,IC50,Colo205 tumor cells,< 0.5 µM
CCNc1nc(-c2cc(OC)cc(OC)c2)c(-c2ccnc(Nc3ccc(N4CCOCC4)nc3)n2)o1 [Example 120],IC50,A375P tumor cells,0.5 to 5 µM
same,IC50,B-Raf,< 0.1 µM
same,IC50,SK-MEL-3 tumor cells,0.5 to 5 µM
same,IC50,HT-29 tumor cells,0.5 to 5 µM
same,IC50,SK-MEL-28 tumor cells,0.5 to 5 µM
same,IC50,Colo205 tumor cells,< 0.5 µM
CCNc1nc(-c2cc(OC)cc(OC)c2)c(-c2ccnc(Nc3ccc(N4CCN(CCOC)CC4)c(C(=O)O)c3)n2)o1 [Example 119],IC50,A375P tumor cells,0.5 to 5 µM
same,IC50,B-Raf,< 0.1 µM
same,IC50,SK-MEL-3 tumor cells,0.5 to 5 µM
same,IC50,HT-29 tumor cells,0.5 to 5 µM
same,IC50,SK-MEL-28 tumor cells,0.5 to 5 µM
same,IC50,Colo205 tumor cells,0.5 to 5 µM
"COc1cccc(-c2nc(C(C)C)sc2-c2ccnc(Nc3ccc(OC4CCN(C(C)C)CC4)c(F)c3)n2)c1 [Example 59, N-(3-Fluoro-4-{[1-(1-methylethyl)-4-piperidinyl]oxy}phenyl)-4-{2-(1-methylethyl)-4-[3-(methyloxy)phenyl]-1,3-thiazol-5-yl}-2-pyrimidinamine]",IC50,A375P tumor cells,0.5 to 5 µM
same,IC50,B-Raf,< 0.1 µM
same,IC50,SK-MEL-3 tumor cells,< 0.5 µM
same,IC50,HT-29 tumor cells,< 0.5 µM
same,IC50,SK-MEL-28 tumor cells,0.5 to 5 µM
same,IC50,Colo205 tumor cells,< 0.5 µM
"CCNc1nc(-c2cc(OC)ccc2F)c(-c2ccnc(Nc3ccc(N4CCN(C)CC4)c(F)c3)n2)s1 [Example 56, 4-{2-(Ethylamino)-4-[2-fluoro-5-(methyloxy)phenyl]-1,3-thiazol-5-yl}-N-[3-fluoro-4-(4-methyl-1-piperazinyl)phenyl]-2-pyrimidinamine]",IC50,A375P tumor cells,< 0.5 µM
same,IC50,B-Raf,< 0.1 µM
same,IC50,SK-MEL-3 tumor cells,< 0.5 µM
same,IC50,HT-29 tumor cells,< 0.5 µM
same,IC50,SK-MEL-28 tumor cells,0.5 to 5 µM
same,IC50,Colo205 tumor cells,< 0.5 µM
"CCNc1nc(-c2ccc3c(c2)OCO3)c(-c2ccnc(Nc3ccc(OC4CCN(CCS(C)(=O)=O)CC4)c(F)c3)n2)s1 [Example 52, 4-[4-(1,3-Benzodioxol-5-yl)-2-(ethylamino)-1,3-thiazol-5-yl]-N-[3-fluoro-4-({1-[2-(methylsulfonyl)ethyl]-4-piperidinyl}oxy)phenyl]-2-pyrimidinamine]",IC50,A375P tumor cells,< 0.5 µM
same,IC50,B-Raf,< 0.1 µM
same,IC50,SK-MEL-3 tumor cells,< 0.5 µM
same,IC50,HT-29 tumor cells,< 0.5 µM
same,IC50,SK-MEL-28 tumor cells,< 0.5 µM
same,IC50,Colo205 tumor cells,< 0.5 µM
CCNc1nc(-c2cc(C)cc(OC)c2)c(-c2ccnc(Nc3cc(OC)c(OC4CCN(CCS(C)(=O)=O)CC4)c(OC)c3)n2)o1 [Example 131],IC50,A375P tumor cells,0.5 to 5 µM
same,IC50,B-Raf,< 0.1 µM
same,IC50,SK-MEL-3 tumor cells,< 0.5 µM
same,IC50,HT-29 tumor cells,0.5 to 5 µM
same,IC50,SK-MEL-28 tumor cells,0.5 to 5 µM
same,IC50,Colo205 tumor cells,< 0.5 µM
"CCNc1nc(-c2cccc(OC)c2)c(-c2ccnc(Nc3ccc(N4CCOCC4)nc3)n2)s1 [Example 42, 4-{2-(Ethylamino)-4-[3-(methyloxy)phenyl]-1,3-thiazol-5-yl}-N-[6-(4-morpholinyl)-3-pyridinyl]-2-pyrimidinamine]",IC50,A375P tumor cells,< 0.5 µM
same,IC50,B-Raf,< 0.1 µM
same,IC50,SK-MEL-3 tumor cells,< 0.5 µM
same,IC50,HT-29 tumor cells,< 0.5 µM
same,IC50,SK-MEL-28 tumor cells,0.5 to 5 µM
same,IC50,Colo205 tumor cells,< 0.5 µM
"CCNc1nc(-c2cc(OC)ccn2)c(-c2ccnc(Nc3ccc(OCCN4CCCC4)c(Cl)c3)n2)s1 [Example 57, N-(3-Chloro-4-{[2-(1-pyrrolidinyl)ethyl]oxy}phenyl)-4-{2-(ethylamino)-4-[4-(methyloxy)-2-pyridinyl]-1,3-thiazol-5-yl}-2-pyrimidinamine]",IC50,A375P tumor cells,< 0.5 µM
same,IC50,B-Raf,< 0.1 µM
same,IC50,SK-MEL-3 tumor cells,< 0.5 µM
same,IC50,HT-29 tumor cells,< 0.5 µM
same,IC50,SK-MEL-28 tumor cells,0.5 to 5 µM
same,IC50,Colo205 tumor cells,0.5 to 5 µM
